Measurements taken from PubChem BioAssay (NCI).
Several values for one entry are separate records, joined by “and”; a condition that tells them apart may be missing. Equal values may be shown once.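 How tested: cells in 96-well plates exposed to compound for 48 hours at five concentrations. At the GI50, growth is halved. At the TGI there is no net growth.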

Assays:
Experiment in all cases: growth of human tumour cells (NCI), 48 h
ACHN renal = test system: ACHN renal
BT-549 breast = test system: BT-549 breast
LOX IMVI melanoma = test system: LOX IMVI melanoma
MALME-3M melanoma = test system: MALME-3M melanoma
MDA-MB-231 breast = test system: MDA-MB-231 breast
SN12C renal = test system: SN12C renal
SNB-75 CNS = test system: SNB-75 CNS
KM20L2 colon = test system: KM20L2 colon
LXFL 529 NSCLC = test system: LXFL 529 NSCLC

Row | Structure (SMILES) | TGI (ACHN renal) | TGI (BT-549 breast) [µM] | TGI (LOX IMVI melanoma) [µM] | TGI (MALME-3M melanoma) | TGI (MDA-MB-231 breast) | TGI (SN12C renal) [µM] | TGI (SNB-75 CNS) [µM] | GI50 (ACHN renal) [µM] | GI50 (BT-549 breast) [µM] | GI50 (LOX IMVI melanoma) [µM] | GI50 (MALME-3M melanoma) [µM] | GI50 (MDA-MB-231 breast) [µM] | GI50 (SN12C renal) [µM] | GI50 (SNB-75 CNS) [µM] | GI50 (KM20L2 colon) [µM] | TGI (KM20L2 colon) [µM] | GI50 (LXFL 529 NSCLC) [µM] | TGI (LXFL 529 NSCLC) [µM]
1 | Nc1nc(N)c2ncn(Cc3c(Cl)cccc3Cl)c2n1 | > 100 µM | > 100 | > 100 | > 100 µM | > 100 µM | > 100 | 48.7 | – | – | – | – | – | – | – | – | – | – | –
2 | C=C(C)[C@@H]1CC[C@]2(c3ncc(C)o3)CC[C@]3(C)[C@H](CC[C@@H]4[C@@](C)(CCC#N)[C@H](C(=C)C)CC[C@]43C)[C@@H]12 | 17.2 µM | 29.2 | 4.14 | 9.75 µM | 6.41 µM | 12.1 | 16.6 | 4.65 | 14.4 | 1.95 | 2.65 | 2.53 | 3.16 | 2.44 | – | – | – | –
3 | CCCCCn1ncc(-c2c(O)c(O)cc3c(O)c(-c4c(C)cc5c(-c6cnn(CCCCC)n6)c(O)c(O)cc5c4O)c(C)cc23)n1 | 4.27 µM | 5.09 | 1.16 | 4.73 µM | 5.67 µM | 5.75 | 3.84 | 0.128 | 0.0913 | 0.0908 | 0.138 | 0.182 | 0.124 | 0.165 | – | – | – | –
4 | CCC(=O)[O-].CCC(=O)[O-].N.N.N.N.[Co+3].[O-][Cl+3]([O-])([O-])[O-] | > 100 µM | – | > 100 | > 100 µM | – | > 100 | > 100 | > 100 | – | > 100 | > 100 | – | > 100 | > 100 | > 100 | > 100 | > 100 | > 100
5 | COc1ccc(-c2ccc(=O)oc2-c2cc(OC)c(OC)c(OC)c2)cc1O | > 73.3 µM | > 100 | > 100 | > 100 µM | > 100 µM | > 100 | > 100 | 0.135 | 0.0919 | 0.051 | – | 0.0613 | 0.0697 | 0.0389 | – | – | – | –
6 | COc1cc2c(cc1OCCN1C(=O)c3cccc4cccc(c34)C1=O)N=C[C@@H]1CCCN1C2=O | 14.9 µM and 33 µM | 16.9 | 12.3 | 15.7 µM and 24.5 µM | 14.6 µM and > 100 µM | 14.7 | 45 | 19 | – | – | 11.7 | > 100 | – | – | – | – | – | –
7 | Cc1ccc2nc(NC(=O)CSC(=S)N3CCN(Cc4ccccc4)CC3)sc2c1 | > 100 µM | > 100 | > 21 | > 100 µM | > 100 µM | > 100 | > 100 | > 100 | > 100 | – | > 100 | > 100 | > 100 | > 100 | – | – | – | –
8 | COC(=O)c1c(C(=O)OC)c(C(=O)OC)c(C(=O)OC)c1C(=O)OC | > 100 µM | – | > 100 | > 100 µM | – | > 100 | > 100 | – | – | – | – | – | – | – | – | > 100 | – | > 100
9 | Cc1cc(Cl)ccc1OCC(=O)Oc1c(Cl)c(Cl)c(Cl)c(Cl)c1Cl | > 100 µM | > 100 | 51.6 | 45.3 µM | 38.1 µM | 62.9 | 62.6 | – | – | – | – | – | – | – | – | – | – | –
10 | COc1ccc(S(=O)(=O)N2CCCCC2)cc1NC(=O)c1[nH]c(C)c2c1CCCCC2=O | > 100 µM | > 100 | 2.79 | 93.8 µM | > 100 µM | > 100 | 3.46 | 2.34 | 4 | 0.887 | 1.76 | 0.718 | 3.16 | 0.141 | – | – | – | –
11 | CNC1=C(Br)C(=O)C2=C(C1=O)C1C3=C(C(=O)C=CC3=O)C2c2ccccc21 (centres undefined) | 3.9 µM | 5.98 | 4.42 | 16.2 µM | 4.93 µM | 3.21 | 24.5 | 2.1 | 2.45 | 1.74 | 6.96 | 2.94 | 1.65 | 3.88 | – | – | – | –
12 | CC(=O)OC1CC(C)c2c1ncnc2N1CCN(C(=O)OC(C)(C)C)CC1 (centres undefined) | > 100 µM | > 100 | > 100 | > 100 µM | > 100 µM | > 100 | > 100 | 80.7 | 61 | 47.8 | 35.5 | 42.8 | 79.4 | 25.2 | – | – | – | –
13 | COc1cccc2c1C(=O)c1c(O)c3c(c(O)c1C2=O)C[C@@](O)(C(=O)COC(=O)c1cccnc1)C[C@@H]3OC1CC(N)C(O)C(C)O1 (some centres undefined) | – | 1.02 | 0.372 | 0.353 µM | 1.96 µM | 3.68 | 0.534 | 0.117 | 0.193 | 0.0443 | 0.115 | 0.327 | 0.083 | 0.084 | – | – | – | –
